US20240024313A1, “BIARYL ETHER UREA COMPOUNDS” (Jazz Pharmaceuticals Ireland Limited, priority 2022, published 2024)

How the values were obtained:
[1] = target: T1, Rat FAAH (Rattus norvegicus, UniProt P97612); assay: Fluorometric-based Rat FAAH Inhibition Assay; type: biochemical; details: recombinant rat FAAH 20 nM, 1 hour preincubation, 2 μM AMC Arachidonoyl Amide substrate
T1 construct: truncated rat FAAH encoding amino acids residues 30-579; 6xHis (N); TEV cleavage site (N); made in house; host or cells: E. coli (pLysS cells)
T1 sequence (P97612 30-579): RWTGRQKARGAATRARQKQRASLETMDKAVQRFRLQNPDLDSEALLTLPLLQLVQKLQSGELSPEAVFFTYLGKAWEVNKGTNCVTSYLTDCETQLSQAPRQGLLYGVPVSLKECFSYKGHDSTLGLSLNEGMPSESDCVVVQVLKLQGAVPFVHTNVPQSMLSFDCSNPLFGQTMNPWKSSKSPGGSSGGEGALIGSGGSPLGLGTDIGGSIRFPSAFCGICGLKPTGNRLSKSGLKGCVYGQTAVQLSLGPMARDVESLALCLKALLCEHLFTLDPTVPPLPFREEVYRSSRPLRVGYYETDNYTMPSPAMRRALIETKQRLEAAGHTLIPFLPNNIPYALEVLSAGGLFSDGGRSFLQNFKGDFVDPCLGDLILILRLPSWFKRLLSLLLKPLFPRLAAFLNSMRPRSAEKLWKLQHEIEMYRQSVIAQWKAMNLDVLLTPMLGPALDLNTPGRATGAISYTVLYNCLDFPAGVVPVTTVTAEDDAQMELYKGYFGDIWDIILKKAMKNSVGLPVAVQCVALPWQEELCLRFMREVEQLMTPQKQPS
Protocol: Rat FAAH protein was prepared using the following method: Recombinant truncated rat FAAH encoding amino acids residues 30-579 were expressed in E. coli as NH2-terminal 6×HIS-tag and a TEV-cleavage site fusion protein. 6 L pLysS cells were induced to express FAAH. Cells were lysed and centrifuged. The insoluble pellet was resuspended using a Dounce homogenizer in CHAPS-containing buffer and allowed to stir at 4° C. for 1 hour. The resuspended pellet was then centrifuged and rat FAAH in the clarified supernatant was purified by IMAC. The purest protein fractions were pooled, and buffer exchanged into storage buffer by dialysis. The protein concentration was determined by Bradford assay aliquots were flash frozen in liquid nitrogen.
Fluorometric-based Rat FAAH Inhibition Assay was performed using the following method:
(§1) Assays were performed in standard-volume, black, non-binding 384-well plates (Corning #3654). All additions were carried out using the Agilent Bravo Automated Liquid Handler using an 384ST pipetting head.
(§2) FAAH reactions contained 20 nM Fatty Acid Amide Hydrolase (rat, recombinant) diluted in an assay buffer containing Tris-EDTA, pH 9.0 at ambient temperature. To obtain 20 nM FAAH per well, a working stock was made at 50 nM by diluting 150 μL of 7.93 μM enzyme to 24 mL of assay buffer, then adding 20 μL to each well. Using the mother plates (prepared at 1000× in DMSO), the Agilent Bravo performed a 1:100 dilution step in assay buffer prior to adding 5 μL to each well for an additional 1:10 dilution.
Plates were incubated at room temperature for 1 hour.
(§3) To initialize the reaction a final concentration of 2 μM of AMC Arachidonoyl Amide was added to each well. To obtain this concentration a working stock was made at 4 μM by adding 960 μL of 0.1 mM AMC stock to 24 mL of assay buffer, then 25 μL was added to each well. This stock was made at 4% DMSO for a final assay concentration contribution of 2% DMSO.
(§4) The total reaction volume per well was 50 μL. The reactions were allowed to proceed at 37° C. for 30 minutes with fluorescence monitored using a Cytation 5 Multimode imaging plate reader (BioTek Instruments) using excitation and emission wavelengths of 350/10 nm and 455/10 nm, respectively. Rates (RFU/min) were calculated from the linear portion of the reaction curves using a linear least squares curve fitting method using Gen5 v3.10. Calculated rates were then normalized to DMSO control and presented as percentages. Data were graphed and statistics were performed using GraphPad Prism v9.0.1.
Data for the Fluorometric-based Rat FAAH Inhibition Assay are recited in Table 2 and in FIG. 2.

[2] = target: T2, Human FAAH (Homo sapiens, UniProt O00519); assay: Fluorometric-based Human FAAH Inhibition Assay; type: biochemical; details: recombinant human FAAH 125 nM, 1 hour preincubation, AMC Arachidonoyl Amide substrate
T2 construct: Recombinant human FAAH encoding full length amino acids were expressed in insect cells; made in house; host or cells: insect cells (baculovirus infection)
T2 sequence (O00519 1-579): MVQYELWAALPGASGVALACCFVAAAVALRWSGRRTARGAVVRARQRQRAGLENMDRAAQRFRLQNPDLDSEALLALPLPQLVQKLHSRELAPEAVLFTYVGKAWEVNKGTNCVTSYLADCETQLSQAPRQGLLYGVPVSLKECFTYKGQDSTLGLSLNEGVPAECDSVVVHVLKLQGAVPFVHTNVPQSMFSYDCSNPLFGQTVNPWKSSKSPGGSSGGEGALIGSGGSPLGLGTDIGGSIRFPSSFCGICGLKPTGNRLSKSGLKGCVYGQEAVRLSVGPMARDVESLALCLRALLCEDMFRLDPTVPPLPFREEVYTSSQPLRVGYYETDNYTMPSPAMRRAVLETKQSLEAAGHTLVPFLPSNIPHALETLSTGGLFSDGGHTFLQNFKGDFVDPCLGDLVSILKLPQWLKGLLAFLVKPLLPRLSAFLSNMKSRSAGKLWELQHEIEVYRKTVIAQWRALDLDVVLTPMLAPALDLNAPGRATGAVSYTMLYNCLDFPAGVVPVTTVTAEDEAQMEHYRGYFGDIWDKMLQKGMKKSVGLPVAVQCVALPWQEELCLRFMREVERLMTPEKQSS
Protocol: Human FAAH protein was prepared using the following method: Recombinant human FAAH encoding full length amino acids were expressed in insect cells using baculovirus infection as C-terminal (non-cleavable) 8×His tag fusion protein. Protein was supplied as cell lysate: resuspended 100,000×g pellet at 5.12 mg/ml a buffer containing 20 mM HEPES, pH 7.8, 150 mM NaCl, 1 mM EDTA, 1 mM DTT, 0.5% CHAPS. Specific activity was determined to be 844 U/mg.
Fluorometric-based Human FAAH Inhibition Assay was performed using the following method:
as §1
as §2, with “contained 125” for “contained 20”, “Hydrolase (human,” for “Hydrolase (rat,”, “obtain 125” for “obtain 20”, “at 312.5” for “at 50”, “diluting 94” for “diluting 150”, “of 79.63” for “of 7.93”
Plates were incubated at room-temperature for 1 hour.
as §3, with “the reaction,” for “the reaction”, “of […]” for “of 2 μM”, “this concentration,” for “this concentration”, “at […]” for “at 4 μM”
as §4
Data for the Fluorometric-based Human FAAH Inhibition Assay are recited in Table 2 and in FIG. 1.

[3] = Phase 1 crossover pharmacokinetic study of Compound of Formula (II) formulations in healthy adult participants; details: human, in vivo, oral, preliminary data; for AUC(0-t) / Cmax: 4 mg
Protocol: Partial preliminary data on Compound of Formula (II), Compound B, and Compound C) were obtained from a phase 1, single-center, open-label, randomized, 3-period, 2-sequence crossover study to characterize the PK, safety, and tolerability of Compound of Formula (II) formulations (capsule vs tablet) in healthy adult participants. In Periods 1 and 2, participants were randomized to receive 4 mg Compound of Formula (II) capsule formulation or 4 mg Compound of Formula (II) tablet formulation.
Pharmacokinetic parameters for compound of Formula (II), Compound B, and Compound C following single dose of 4 mg of compound of Formula (II) are provided in Table 3. Pharmacokinetic parameters for compound of Formula (II), Compound B, and Compound C following multiple doses of 4 mg of compound of Formula (II) are provided in Table 4.

[4] = following multiple doses of 4 mg of compound of Formula (II)
[5] = following single dose of 4 mg of compound of Formula (II)

Compound | IC50 [1] [nM] | IC50 [2] [nM] | AUC(0-t) [3, 4] [ng·h/mL] | Cmax [3, 4] [ng/mL] | AUC(0-t) [3, 5] [ng·h/mL] | Cmax [3, 5] [ng/mL] | AUC [3, 4] [ng·h/mL] | Tmax [3, 4] [h] | half-life [3, 4] [h]
O=C(Nc1cccnn1)N1CC/C(=C/c2cccc(Oc3ccc(C(F)(F)F)cn3)c2)[C@H](O)C1 [Compound A-SZ, (S,Z)-3-hydroxy-N-(pyridazin-3-yl)-4-(3-((5-(trifluoromethyl)pyridin-2-yl)oxy)benzylidene)piperidine-1-carboxamide] | 3290 ± 583 | 300 ± 54.9 |  |  |  |  |  |  | 
O=C(Nc1cccnn1)N1CCC(O)(C(O)c2cccc(Oc3ccc(C(F)(F)F)cn3)c2)CC1 (centres unmarked) [Compound D, 4-hydroxy-4-(hydroxy(3-((5-(trifluoromethyl)pyridin-2-yl)oxy)phenyl)methyl)-N-(pyridazin-3-yl)piperidine-1-carboxamide] | 3480 ± 654 | 555 ± 84.4 |  |  |  |  |  |  | 
O=C(Nc1cccnn1)N1CC/C(=C/c2cccc(Oc3ccc(C(F)(F)F)cn3)c2)[C@@H](O)C1 [Compound A-RZ, (R,Z)-3-hydroxy-N-(pyridazin-3-yl)-4-(3-((5-(trifluoromethyl)pyridin-2-yl)oxy)benzylidene)piperidine-1-carboxamide] | 170 ± 43 | 39.3 ± 2.89 |  |  |  |  |  |  | 
O=C(Nc1cccnn1)N1CC/C(=C\c2cccc(Oc3ccc(C(F)(F)F)cn3)c2)[C@H](O)C1 [Compound A-SE, (S,E)-3-hydroxy-N-(pyridazin-3-yl)-4-(3-((5-(trifluoromethyl)pyridin-2-yl)oxy)benzylidene)piperidine-1-carboxamide] | 3720 ± 542 | 439 ± 14.7 |  |  |  |  |  |  | 
FC(F)(F)c1ccc(Oc2cccc(C=C3CCNCC3)c2)nc1 [Compound E, 2-(3-(piperidin-4-ylidenemethyl)phenoxy)-5-(trifluoromethyl)pyridine] |  | 34400 ± 24100 |  |  |  |  |  |  | 
O=C(O)CCC(=O)NC(=O)N1CCC(=Cc2cccc(Oc3ccc(C(F)(F)F)cn3)c2)CC1 [Compound C, 4-oxo-4-(4-(3-((5-(trifluoromethyl)pyridin-2-yl)oxy)benzylidene)piperidine-1-carboxamido)butanoic acid] | 39.6 ± 5.84 | 758 ± 11.2 | 281 | 3.9 | 1.1 | 0.4 | 86 | 8 | 40.4

Stronger by IC50 [2], values ahead:

IC50 [1] [nM] | IC50 [2] [nM] | AUC(0-t) [3, 4] [ng·h/mL] | Cmax [3, 4] [ng/mL] | AUC(0-t) [3, 5] [ng·h/mL] | Cmax [3, 5] [ng/mL] | AUC [3, 4] [ng·h/mL] | Tmax [3, 4] [h] | half-life [3, 4] [h] | Compound
56.8 ± 16.6 | 9.01 ± 0.68 |  |  |  |  |  |  |  | O=C(Nc1cccnn1)N1CC/C(=C\c2cccc(Oc3ccc(C(F)(F)F)cn3)c2)[C@@H](O)C1 [Compound A-RE, (R,E)-3-hydroxy-N-(pyridazin-3-yl)-4-(3-((5-(trifluoromethyl)pyridin-2-yl)oxy)benzylidene)piperidine-1-carboxamide]
85.2 ± 9.33 | 12.4 ± 0.89 | 906 | 9.3 | 0.6 | 0.3 | 208 | 24 | 85 | O=C1CCC(NC(=O)N2CCC(=Cc3cccc(Oc4ccc(C(F)(F)F)cn4)c3)CC2)=NN1 [Compound B, N-(6-oxo-1,4,5,6-tetrahydropyridazin-3-yl)-4-(3-((5-(trifluoromethyl)pyridin-2-yl)oxy)benzylidene)piperidine-1-carboxamide]
10.2 ± 1.17 | 3.56 ± 0.67 | 1340 | 46.6 | 138 | 31.3 | 625 | 2 | 32.2 | O=C(Nc1cccnn1)N1CCC(=Cc2cccc(Oc3ccc(C(F)(F)F)cn3)c2)CC1 [Compound of Formula (II), reference compound]
